From EP1247803A2, “Indolinone compounds suitable for modulation of protein kinases” (Sugen, Inc., priority 1996, dated 1998)

Columns and labels:
FLK-1 receptor = target: T1, FLK-1 receptor (Mus musculus, UniProt P35918); assay: FLK-1 ELISA (kinase activity of the FLK-1 receptor in FLK-1/NIH3T3 cells, VEGF stimulated); type: cell-based
T1 construct: expressed in transfected cells; host or cells: NIH3T3 C7#3
Method in brief: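 NIH3T3 C7#3 cells expressing FLK-1 were seeded at 25.000 cells/well, serum-starved overnight in 0.1% FBS, then treated with compound for two hours at 37°C (final DMSO 0.5%) before VEGF stimulation. Receptor was captured on anti-rabbit IgG-coated ELISA plates bearing affinity-purified anti-FLK-1 antiserum.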

PDGF-R = PDGF-R (Homo sapiens, UniProt P09619); assay: PDGF-R ELISA; type: cell-based
Description: A PDGF-R ELISA is described in International Patent Publication No. WO 96/40116, published December 19, 1996 by Tang et al.

T1 sequence (P35918 20-1345): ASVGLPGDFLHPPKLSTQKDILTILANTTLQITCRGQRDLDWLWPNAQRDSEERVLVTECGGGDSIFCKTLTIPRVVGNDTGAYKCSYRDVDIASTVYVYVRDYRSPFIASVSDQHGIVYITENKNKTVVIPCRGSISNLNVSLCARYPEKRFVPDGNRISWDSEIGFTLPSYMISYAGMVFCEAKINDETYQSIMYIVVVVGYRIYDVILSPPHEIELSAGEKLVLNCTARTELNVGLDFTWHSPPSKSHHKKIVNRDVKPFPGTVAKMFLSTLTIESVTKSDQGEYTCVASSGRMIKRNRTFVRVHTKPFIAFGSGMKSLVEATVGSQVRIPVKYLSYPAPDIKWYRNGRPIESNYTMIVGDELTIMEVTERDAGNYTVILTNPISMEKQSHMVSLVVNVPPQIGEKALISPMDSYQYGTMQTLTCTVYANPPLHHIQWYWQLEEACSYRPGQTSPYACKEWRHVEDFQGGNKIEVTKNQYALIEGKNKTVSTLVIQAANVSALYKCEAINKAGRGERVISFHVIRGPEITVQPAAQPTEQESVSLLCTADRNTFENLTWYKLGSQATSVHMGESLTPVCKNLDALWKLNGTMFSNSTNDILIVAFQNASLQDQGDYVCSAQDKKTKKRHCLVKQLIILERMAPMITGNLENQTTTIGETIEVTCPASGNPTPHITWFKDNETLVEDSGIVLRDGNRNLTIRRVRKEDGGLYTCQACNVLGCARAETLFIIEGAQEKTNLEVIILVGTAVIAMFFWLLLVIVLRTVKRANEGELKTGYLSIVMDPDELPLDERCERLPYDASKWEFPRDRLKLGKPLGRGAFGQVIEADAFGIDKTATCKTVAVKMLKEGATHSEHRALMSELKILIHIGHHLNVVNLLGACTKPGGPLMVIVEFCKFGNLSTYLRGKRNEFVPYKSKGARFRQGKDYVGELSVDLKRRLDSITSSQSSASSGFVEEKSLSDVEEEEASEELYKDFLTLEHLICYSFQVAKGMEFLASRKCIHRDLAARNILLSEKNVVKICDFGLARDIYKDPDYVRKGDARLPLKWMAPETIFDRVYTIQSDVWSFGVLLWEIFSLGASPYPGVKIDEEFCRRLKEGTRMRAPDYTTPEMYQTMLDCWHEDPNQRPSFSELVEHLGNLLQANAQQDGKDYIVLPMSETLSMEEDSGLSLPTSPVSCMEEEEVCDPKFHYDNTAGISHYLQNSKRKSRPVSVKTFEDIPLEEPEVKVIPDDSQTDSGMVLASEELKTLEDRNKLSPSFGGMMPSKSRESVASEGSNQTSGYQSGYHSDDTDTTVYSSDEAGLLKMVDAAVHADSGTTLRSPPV
Sequence of PDGF-R (P09619 33-1106, species assumed): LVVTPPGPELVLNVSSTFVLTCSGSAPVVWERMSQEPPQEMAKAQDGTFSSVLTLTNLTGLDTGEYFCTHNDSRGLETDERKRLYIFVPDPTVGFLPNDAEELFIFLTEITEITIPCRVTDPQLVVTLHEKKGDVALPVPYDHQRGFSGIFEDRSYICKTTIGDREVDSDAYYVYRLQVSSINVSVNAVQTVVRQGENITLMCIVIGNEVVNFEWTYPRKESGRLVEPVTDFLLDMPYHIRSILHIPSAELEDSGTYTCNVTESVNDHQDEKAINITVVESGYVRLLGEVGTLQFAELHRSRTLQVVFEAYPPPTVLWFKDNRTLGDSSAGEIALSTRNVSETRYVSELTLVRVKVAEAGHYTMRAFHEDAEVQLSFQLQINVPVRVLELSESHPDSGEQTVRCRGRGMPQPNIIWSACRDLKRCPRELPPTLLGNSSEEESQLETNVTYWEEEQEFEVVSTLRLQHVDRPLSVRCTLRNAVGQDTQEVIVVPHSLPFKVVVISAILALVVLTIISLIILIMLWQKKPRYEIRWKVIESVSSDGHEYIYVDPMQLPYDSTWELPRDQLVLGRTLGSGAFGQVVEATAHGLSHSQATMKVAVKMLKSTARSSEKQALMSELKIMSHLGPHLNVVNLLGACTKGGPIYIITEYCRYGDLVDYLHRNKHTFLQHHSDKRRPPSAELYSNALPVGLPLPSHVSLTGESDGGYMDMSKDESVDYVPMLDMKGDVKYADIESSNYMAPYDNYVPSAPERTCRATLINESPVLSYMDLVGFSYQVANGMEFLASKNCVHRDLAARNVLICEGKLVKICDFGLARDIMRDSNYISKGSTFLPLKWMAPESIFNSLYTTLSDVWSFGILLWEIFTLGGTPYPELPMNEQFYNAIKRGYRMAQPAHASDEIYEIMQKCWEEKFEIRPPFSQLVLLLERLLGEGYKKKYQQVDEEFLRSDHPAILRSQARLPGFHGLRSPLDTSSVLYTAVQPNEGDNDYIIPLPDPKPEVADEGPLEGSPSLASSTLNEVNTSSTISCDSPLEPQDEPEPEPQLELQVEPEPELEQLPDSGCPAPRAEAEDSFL

Row | SMILES | Fik Kinase %Inhibition (FLK-1 receptor) [%] | PDGF Kinase %Inhibition (PDGF-R) [%]
1 | CNS(=O)(=O)c1ccc2c(c1)C(=Cc1c(O)cc(O)cc1O)C(=O)N2 [10722/D03] | 15.0 | -9.4
2 | CNS(=O)(=O)c1ccc2c(c1)C(=Cc1ccc([N+](=O)[O-])s1)C(=O)N2 [10722/D04] | 23.5 | 15.7
3 | CNS(=O)(=O)c1ccc2c(c1)C(=Cc1ccc(C(=O)O)cc1)C(=O)N2 [10722/D05] | 21.4 | 22.0
4 | CNS(=O)(=O)c1ccc2c(c1)C(=Cc1ccc(F)cc1F)C(=O)N2 [10722/D06] | 21.9 | 8.9
5 | CNS(=O)(=O)c1ccc2c(c1)C(=Cc1cc(C)c(O)c(C)c1)C(=O)N2 [10722/D07] | 14.1 | 25.5
6 | CNS(=O)(=O)c1ccc2c(c1)C(=Cc1cc(Cl)c(O)c(C(C)(C)C)c1)C(=O)N2 [10722/D08] | 29.1 | 41.5
7 | CNS(=O)(=O)c1ccc2c(c1)C(=Cc1csc([N+](=O)[O-])c1)C(=O)N2 [10722/D09] | 14.7 | 30.6
8 | CCCCN(CCCC)c1ccc(C=C2C(=O)Nc3ccc(S(=O)(=O)NC)cc32)cc1 [10722/D10] | 8.2 | 41.5
9 | CNS(=O)(=O)c1ccc2c(c1)C(=Cc1ccc(C(F)(F)F)cc1)C(=O)N2 [10722/D11] | 9.6 | 15.2
10 | CC(C)(C)c1cc(C=C2C(=O)Nc3ccc(S(=O)(=O)Nc4ccc(C(F)(F)F)cc4)cc32)cc([N+](=O)[O-])c1O [10722/E02] | 17.0 | 23.2
11 | O=C1Nc2ccc(S(=O)(=O)Nc3ccc(C(F)(F)F)cc3)cc2C1=Cc1c(O)cc(O)cc1O [10722/E03] | 10.7 | -7.2
12 | O=C1Nc2ccc(S(=O)(=O)Nc3ccc(C(F)(F)F)cc3)cc2C1=Cc1ccc([N+](=O)[O-])s1 [10722/E04] | 38.6 | 30.6
13 | O=C1Nc2ccc(S(=O)(=O)Nc3ccc(C(F)(F)F)cc3)cc2C1=Cc1ccc(C(=O)O)cc1 [10722/E05] | 19.2 | 19.2
14 | O=C1Nc2ccc(S(=O)(=O)Nc3ccc(C(F)(F)F)cc3)cc2C1=Cc1ccc(F)cc1F [10722/E06] | 21.4 | 32.9
15 | Cc1cc(C=C2C(=O)Nc3ccc(S(=O)(=O)Nc4ccc(C(F)(F)F)cc4)cc32)cc(C)c1O [10722/E07] | 24.3 | 40.9
16 | CC(C)(C)c1cc(C=C2C(=O)Nc3ccc(S(=O)(=O)Nc4ccc(C(F)(F)F)cc4)cc32)cc(Cl)c1O [10722/E08] | 18.6 | 38.7
17 | O=C1Nc2ccc(S(=O)(=O)Nc3ccc(C(F)(F)F)cc3)cc2C1=Cc1csc([N+](=O)[O-])c1 [10722/E09] | 16.2 | 26.6
18 | CCCCN(CCCC)c1ccc(C=C2C(=O)Nc3ccc(S(=O)(=O)Nc4ccc(C(F)(F)F)cc4)cc32)cc1 [10722/E10] | 3.1 | 31.8
19 | O=C1Nc2ccc(S(=O)(=O)Nc3ccc(C(F)(F)F)cc3)cc2C1=Cc1ccc(C(F)(F)F)cc1 [10722/E11] | 15.3 | 28.3
